The subject of assay [1] is S. aureus. As to the kind of experiment: Secondary stage: bacterial growth (ET50/MIC) of antibiotics with or without extract of degradation products of ORC. The class given is cell-based, Staphylococcus aureus. Conditions: for Effect of addition of degradation products of ORC on the antibiotic activity: antibiotic with versus without ORC degradation products. The text has this: ORC pads which had not been impregnated with antibiotic (referred to herein as “blank ORC pads”), were subjected to extraction and degradation in PBS for three hours at ambient temperature. Extract obtained from these blank ORC pads is referred to herein as “blank extract of degradation products of ORC”.
Blank ORC pads were subjected to extraction and degradation in a solution of antibiotic in PBS. Extracts of degradation products obtained from blank ORC pads in a solution of antibiotic in PBS is referred to herein as “extracts of degradation products of blank ORC in antibiotic”.
Due to the acidity of ORC, which provides some antibiotic effect, the size of the pad used was small i.e. approximately 1×1.5 inch, weighing between 65-75 mg (70 mg on average) in order to prevent the ORC from affecting the final pH of the assay and therefore the growth of the bacteria.
15 ml tubes, each containing 3 ml of an antibiotic solution at a known concentration in sterile PBS, were prepared in duplicate.
Blank ORC pads were subjected to extraction and degradation in the antibiotic solution by immersing the ORC pads in the antibiotic solution for 3-5 hours at ambient temperature on a roller mixer (Stuart, Cat#SRT9D).
Blank extract of degradation products of ORC and extract in antibiotic of degradation products of ORC, prepared as described above, were diluted 10 folds in MHBII in sterile 15 ml capped tubes.
(§1) The 5×10^6 CFU/ml stock suspension which had been prepared in advance was transferred into a reservoir and 10 μl of the stock suspension were added into each well of columns 2-11 using a multichannel pipette to obtain a final 5×10^5 CFU/ml suspension.
Columns 3 to 6, rows B to F, were filled with the Blank ORC extracted in antibiotic at decreasing concentrations 1 to 5, diluted 10 folds in MHBII. Each sample tested was placed in 4 well repeats for statistical results.
Columns 7 to 10, rows B to F, were filled with the antibiotic solution (AB) at decreasing concentrations 1 to 5, diluted 10 folds in MHBII. Each sample tested was placed in 4 well repeats for statistical results.
Columns 3 to 6, row G, were filled with the blank extract of degradation products of ORC (PBS-ORC) diluted 10 folds in MHBII.
The plate was incubated at 37° C. with shaking in the ELISA reader and the optical density at 600 nm was read every 20 minutes for a total of 18 hours.
The average and standard deviation for OD readings was calculated for each time point of the wells using Excel. The average values were plotted against time to obtain a graph of the bacterial growth curves in the presence of each of the antibiotics tested.
In some cases, the average OD was plotted for a single endpoint of 800 minutes for the various antibiotic treatments and controls.
The average values were also entered into the GraphPad Prism program (GraphPad Software Inc., CA, USA) in order to calculate the Effective Time 50 (ET50) i.e. the time, in minutes, required for the antibiotic to induce a response halfway between the baseline and maximum, where the maximum is the bacterial growth in MHBII with PBS. This provides a quantifiable measure of the efficacy of the antibiotics tested and enables comparison of the various samples tested.

The subject of assay [2] is S. aureus. As to the kind of experiment: Primary stage MIC measurement of antibiotic alone (OD 600 nm growth curves, 18 h). The class given is cell-based, Staphylococcus aureus.
Source text: The following day, the turbidity of the actively-growing broth culture was adjusted with Calcium-adjusted Mueller Hinton broth II (MHBII) to be equivalent to that of a 0.5 McFarland standard (1×10^8 CFU/ml). The broth culture was maintained under ambient conditions prior to use.
The method used in this stage was based on the classic Minimum Inhibitory Concentration (MIC) measurements, as described by the Clinical and Laboratory Standards Institute (CLSI) document M07-A9: “Method for Dilution Antimicrobial Susceptibility Test for Bacteria that Grow Aerobically”. While classic MIC measurements require visual inspection of plates for bacterial growth after 18 hours, growth was monitored in the present study according to optical density (OD) at 600 nm, using an ELISA reader (MultiSkan™ FC ELISA reader, Thermo Fisher Scientific, Massachusetts, USA), thereby obtaining bacterial growth curves for tested antibiotic solutions.
Columns 1 and 3-12: 100 μl of MHBII alone was added to each well.
[…]: 200 μl of a solution of antibiotic in MHBII at the highest concentration to be tested was added to each well.
A series of 2-fold dilutions was performed, wherein 100 μl of solution of antibiotic was withdrawn from each well of column 2, transferred to the corresponding well of column 3, and mixed.
The dilution was then repeated by transfer from column 3 to column 4, and so on, until column 11, when the 100 μl of solution of antibiotic withdrawn from each well of column 11 was discarded.
as §1
The plate was then incubated at 37° C. with shaking in the ELISA reader and the optical density at 600 nm was read every 20 minutes for a total of 18 hours.
The average OD reading obtained for each antibiotic concentration was calculated and plotted against time to obtain a growth curve.
The MIC was determined as the first antibiotic concentration at which […] by the end of the 18-hour period.

For assay [3], the system named is S. aureus. As to conditions: cited from earlier work.
Assay [4] relates to S. aureus. As to the kind of experiment: Tertiary stage: antimicrobial activity (ET50/MIC) of extract of degradation products of antibiotic-impregnated ORC pads, single or combination. The class given is cell-based, Staphylococcus aureus. Conditions: impregnated on ORC pad together with 1.26 ng/ml minocycline. On the procedure: Solutions comprising different concentrations of antibiotics to be tested were prepared in methanol.
Blank ORC pads of dimensions 1×1.5 inch, weighing between 65-75 mg (70 mg on average), in duplicate, were immersed in the antibiotic solutions and then dried using a rotary evaporator to provide extract of degradation products of antibiotic-impregnated ORC pads.
15 ml test tubes containing 3 ml of sterile PBS were prepared, and the antibiotic-impregnated ORC pads were immersed in the tubes and incubated for 3-5 hours at ambient temperature on a roller mixer (Stuart, Cat#SRT9D).
Each of the above extracts was filtered out using a sterile 0.8/0.2 μm syringe filter into a clean 15 ml tube. These extraction fluids are referred to herein as “extract of degradation products of antibiotic-impregnated ORC”.
Briefly, ORC pads weighing on average 70 mg each were impregnated with the selected antibiotic. Extracts of degradation products of antibiotic-impregnated ORC were prepared by immersion and incubation in 3 ml of sterile PBS for 3 hours at ambient temperature. The ORC degeneration products were then removed, and any remaining ORC particles were filtered out using a […] syringe filter. This extraction fluid was then diluted 10-fold into Muller Hinton growth medium containing bacteria. Bacterial growth was monitored every 20 min for a total of 18 hours according to optical density (OD) at 600 nm, using an ELISA reader.
Since the study included many possible combinations of two antibiotics, each with their own different concentration range, a matrix of possible antibiotic concentrations was designed, and degradation products of ORC were prepared accordingly (see Table 10). Since all the possible combinations could not be fitted into one 96 well plate, a series of MIC experiments were carried out.

Entries after “also recorded” stand apart in the source; their conditions may differ.

As to `CN(C)[C@@H]1C(O)=C(C(N)=O)C(=O)[C@@]2(O)C(O)=C3C(=O)c4c(O)cccc4[C@@](C)(O)[C@H]3C[C@@H]12` [Tetracycline], in the assay on S. aureus [1], the “Effect of addition of degradation products of ORC on the antibiotic activity” value (from here on “Effect”) was “no effect”. In addition, the ET50 in the assay on S. aureus [1] (tetracycline 0.025 μg/ml, +ORC degradation products) was 517.7 min; in the assay on S. aureus [1] (tetracycline 0.025 μg/ml, −ORC), 531.1 min; in the assay with S. aureus [1] (tetracycline 0.05 μg/ml, +ORC degradation products), 741.1 min; with S. aureus [1] (tetracycline 0.05 μg/ml, −ORC) it was 989.9 min; with S. aureus [1] (tetracycline 0.1 μg/ml, +ORC degradation products) it was 1470 min; in the assay with S. aureus [1] (tetracycline 0.1 μg/ml, −ORC), 1889 min. Moreover, the ET50 in the assay with S. aureus [1] (tetracycline 0.2 μg/ml, +ORC degradation products) is more than 2000 min; in the assay with S. aureus [1] (tetracycline 0.2 μg/ml, −ORC), more than 2000 min; with S. aureus [1] (tetracycline 0.4 μg/ml, +ORC degradation products), more than 2000 min; in the assay with S. aureus [1] (tetracycline 0.4 μg/ml, −ORC), more than 2000 min.

Turning to Gentamycin [Gentamicin], in the assay with S. aureus [2] (antibiotic alone, no ORC), the “MIC values found in the present study (primary stage, Example 1)” value is 0.25 mg/L. Also, in the assay on S. aureus [1], the “Effect” value is given as “reduction in the antibiotic activity; also recorded: decreased antibiotic activity; also recorded: lowering of the antibiotic activity; also recorded: impaired”. Also, the ET50 in the assay with S. aureus [1] (gentamycin 0.1 μg/ml, +ORC degradation products) turned out to be 423.7 min; with S. aureus [1] (gentamycin 0.1 μg/ml, −ORC), 509.4 min; in the assay on S. aureus [1] (gentamycin 0.3 μg/ml, +ORC degradation products), 429.3 min; with S. aureus [1] (gentamycin 0.3 μg/ml, −ORC), 1360 min; in the assay with S. aureus [1] (gentamycin 0.5 μg/ml, +ORC degradation products) it was 423.1 min; in the assay on S. aureus [1] (gentamycin 0.8 μg/ml, +ORC degradation products), 422.7 min. In the assay on S. aureus [1] (gentamycin 1 μg/ml, +ORC degradation products), the ET50 was 446.6 min. In the assay with S. aureus [3], the “MIC values for S. aureus according to the literature” value was 0.12 to 1 mg/L.

Take `CCC[C@@H]1C[C@@H](C(=O)N[C@@H]([C@H]2O[C@H](SC)[C@H](O)[C@@H](O)[C@H]2O)[C@H](C)Cl)N(C)C1` [Clindamycin, clindamycin]: the “MIC as single antibiotics in the absence of ORC (first stage MIC results)” value in the assay on S. aureus [2] was found to be 0.062 mg/L. Also, the “Effect” value in the assay with S. aureus [1] is “no effect”. In addition, the “Clindamycin level sufficient for growth inhibition of S. aureus in combination” value with S. aureus [4] was 8.9 ng/mL.

Values taken from patent US20190184069A1, “ANTIMICROBIAL COMPOSITIONS COMPRISING MINOCYCLINE AND DEGRADATION PRODUCTS OF OXIDIZED CELLULOSE” (Omrix Biopharmaceuticals Ltd., priority 2017, published 2019).
